The source of these data is ChEMBL document CHEMBL1671661, “Inhibition of intracellular growth of Salmonella enterica serovar Typhimurium in tissue culture by antisense peptide-phosphorodiamidate morpholino oligomer” (Antimicrob Agents Chemother, 2009).

Series [1] relates to Salmonella typhimurium. Nature of the series: Antibacterial activity against 9.0 x 10^7 CFU/ml Salmonella enterica serovar Typhimurium 14028s assessed as decrease in bacterial viable cell count at 2.5 uM by spectrophotometry. Format: functional, organism-based. Conditions: Salmonella enterica subsp. enterica serovar Typhimurium.
The subject of series [2] is Salmonella typhimurium. Description: Antibacterial activity against 9.0 x 10^7 CFU/ml Salmonella enterica serovar Typhimurium 14028s infected in RAW264.7 mouse macrophages assessed as decrease in intracellular bacterial level at 3 uM measured 42 hrs post infection relative to untreated control. Format: functional.
Series [3] concerns Salmonella typhimurium. Description: Antibacterial activity against Salmonella enterica serovar Typhimurium 14028s by CLSI M7-A7 microdilution method. Format: functional, Salmonella enterica subsp. enterica serovar Typhimurium.
Series [4] concerns Salmonella typhimurium. Nature of the series: Antibacterial activity against 9.0 x 10^7 CFU/ml Salmonella enterica serovar Typhimurium 14028s infected in RAW264.7 mouse macrophages assessed as decrease in intracellular bacterial level at 3 uM measured 2 hrs post infection. In kind it is functional.
Series [5] deals with Salmonella typhimurium. Description: Antibacterial activity against 9.0 x 10^7 CFU/ml Salmonella enterica serovar Typhimurium 14028s infected in RAW264.7 mouse macrophages assessed as decrease in intracellular bacterial level at 3 uM measured 18 hrs post infection. In kind it is functional, organism-based. The settings on record: Salmonella enterica subsp. enterica serovar Typhimurium.

In series [6] the test system is Salmonella typhimurium. Nature of the series: Antibacterial activity against 9.0 x 10^7 CFU/ml Salmonella enterica serovar Typhimurium 14028s assessed as decrease in growth rate at 2.5 uM by spectrophotometry. In kind it is functional, organism-based. The settings on record: Salmonella enterica subsp. enterica serovar Typhimurium.
For series [7], the system named is Salmonella typhimurium. Nature of the series: Antibacterial activity against 9.0 x 10^7 CFU/ml Salmonella enterica serovar Typhimurium 14028s assessed as decrease in growth rate at 50 uM by spectrophotometry. Format: functional, organism-based. The settings on record: Salmonella enterica subsp. enterica serovar Typhimurium.
The subject of series [8] is Serum. Description: Drug concentration in rat serum administered as single bolus dose. In kind it is ADME, organism-based. Conditions: in vivo.
Series [9] relates to Salmonella typhimurium. Nature of the series: Antibacterial activity against 9.0 x 10^7 CFU/ml Salmonella enterica serovar Typhimurium 14028s assessed as decrease in bacterial viable cell count at 2.5 uM by spectrophotometry relative to untreated control. Format: functional, Salmonella enterica subsp. enterica serovar Typhimurium.
The mark [10] stands for this setting: Salmonella enterica subsp. enterica serovar Typhimurium.

≈ marks a conversion by molar mass, not a printed value. Calls of active or inactive are those of the source. No cut-off for these calls is given here.

Take `CC(=O)N[C@@H](CCCNC(=N)N)C(=O)NCCCCCC(=O)N[C@@H](CCCNC(=N)N)C(=O)N[C@@H](CCCNC(=N)N)C(=O)NCCCCCC(=O)N[C@@H](CCCNC(=N)N)C(=O)[C@H](CCCNC(=N)N)NC(=O)CCCCCNC(=O)N[C@@H](CCCNC(=N)N)C(=O)N[C@@H](CCCNC(=N)N)C(=O)NCCCCCC(=O)N[C@@H](CCCNC(=N)N)C(=O)NCCCCCC(=O)NCCC(=O)N1C[C@@H](COP(=O)(N2CCNCC2)N2C[C@@H](COP(=O)(N(C)C)N3C[C@@H](COP(=O)(N(C)C)N4C[C@@H](COP(=O)(N5CCNCC5)N5C[C@@H](COP(=O)(N(C)C)N6C[C@@H](COP(=O)(N(C)C)N7C[C@@H](COP(=O)(N(C)C)N8C[C@@H](COP(=O)(N(C)C)N9C[C@@H](COP(=O)(N%10CCNCC%10)N%10C[C@@H](COP(=O)(N(C)C)N%11C[C@@H](CO)O[C@@H](n%12cc(C)c(=O)[nH]c%12=O)C%11)O[C@@H](n%11ccc(N)nc%11=O)C%10)O[C@@H](n%10cc(C)c(=O)[nH]c%10=O)C9)O[C@@H](n9ccc(N)nc9=O)C8)O[C@@H](n8cnc9c(N)ncnc98)C7)O[C@@H](n7cnc8c(=O)[nH]c(N)nc87)C6)O[C@@H](n6cnc7c(N)ncnc76)C5)O[C@@H](n5cc(C)c(=O)[nH]c5=O)C4)O[C@@H](n4cnc5c(=O)[nH]c(N)nc54)C3)O[C@@H](n3cnc4c(=O)[nH]c(N)nc43)C2)O[C@@H](n2cc(C)c(=O)[nH]c2=O)C1` (stereo partly drawn): the outcome in [1], in series [2] (setting [10]), in series [4] (setting [10]), in series [5] and in series [6] was inactive. The same compound returned an MIC in [3] of over 160 µM.
For the compound `CC1(C)S[C@@H]2[C@H](NC(=O)[C@H](N)c3ccccc3)C(=O)N2[C@H]1C(=O)O` [AMPICILLIN], in series [3], the MIC is 20 µM (≈ 6.99 µg/mL).
Regarding `CC(=O)N[C@@H](CCCNC(=N)N)C(=O)NCCCCCC(=O)N[C@@H](CCCNC(=N)N)C(=O)N[C@@H](CCCNC(=N)N)C(=O)NCCCCCC(=O)N[C@@H](CCCNC(=N)N)C(=O)[C@H](CCCNC(=N)N)NC(=O)CCCCCNC(=O)N[C@@H](CCCNC(=N)N)C(=O)N[C@@H](CCCNC(=N)N)C(=O)NCCCCCC(=O)N[C@@H](CCCNC(=N)N)C(=O)NCCCCCC(=O)NCCC(=O)N1C[C@@H](COP(=O)(N(C)C)N2C[C@@H](COP(=O)(N(C)C)N3C[C@@H](COP(=O)(N(C)C)N4C[C@@H](COP(=O)(N(C)C)N5C[C@@H](COP(=O)(N(C)C)N6C[C@@H](COP(=O)(N(C)C)N7C[C@@H](COP(=O)(N(C)C)N8C[C@@H](COP(=O)(N(C)C)N9C[C@@H](COP(=O)(N(C)C)N%10C[C@@H](COP(=O)(N(C)C)N%11C[C@@H](CO)O[C@@H](n%12cc(C)c(=O)[nH]c%12=O)C%11)O[C@@H](n%11ccc(N)nc%11=O)C%10)O[C@@H](n%10cc(C)c(=O)[nH]c%10=O)C9)O[C@@H](n9ccc(N)nc9=O)C8)O[C@@H](n8cnc9c(N)ncnc98)C7)O[C@@H](n7cnc8c(=O)[nH]c(N)nc87)C6)O[C@@H](n6cnc7c(N)ncnc76)C5)O[C@@H](n5cc(C)c(=O)[nH]c5=O)C4)O[C@@H](n4cnc5c(=O)[nH]c(N)nc54)C3)O[C@@H](n3cnc4c(=O)[nH]c(N)nc43)C2)O[C@@H](n2cc(C)c(=O)[nH]c2=O)C1` (stereo partly drawn), the outcome in series [1] and in series [6] was inactive. This compound showed an MIC in series [3] of over 160 µM.
On to `CC(=O)N[C@@H](CCCNC(=N)N)C(=O)NCCCCCC(=O)N[C@@H](CCCNC(=N)N)C(=O)N[C@@H](CCCNC(=N)N)C(=O)NCCCCCC(=O)N[C@@H](CCCNC(=N)N)C(=O)[C@H](CCCNC(=N)N)NC(=O)CCCCCNC(=O)N[C@@H](CCCNC(=N)N)C(=O)N[C@@H](CCCNC(=N)N)C(=O)NCCCCCC(=O)N[C@@H](CCCNC(=N)N)C(=O)NCCCCCC(=O)NCCC(=O)N1C[C@@H](COP(=O)(N(C)C)N2C[C@@H](COP(=O)(N(C)C)N3C[C@@H](COP(=O)(N(C)C)N4C[C@@H](COP(=O)(N(C)C)N5C[C@@H](COP(=O)(N(C)C)N6C[C@@H](COP(=O)(N(C)C)N7C[C@@H](COP(=O)(N(C)C)N8C[C@@H](COP(=O)(N(C)C)N9C[C@@H](COP(=O)(N(C)C)N%10C[C@@H](COP(=O)(N(C)C)N%11C[C@@H](CO)O[C@@H](n%12ccc(N)nc%12=O)C%11)O[C@@H](n%11cc(C)c(=O)[nH]c%11=O)C%10)O[C@@H](n%10cc(C)c(=O)[nH]c%10=O)C9)O[C@@H](n9ccc(N)nc9=O)C8)O[C@@H](n8cnc9c(=O)[nH]c(N)nc98)C7)O[C@@H](n7cnc8c(N)ncnc87)C6)O[C@@H](n6cc(C)c(=O)[nH]c6=O)C5)O[C@@H](n5cnc6c(N)ncnc65)C4)O[C@@H](n4cnc5c(=O)[nH]c(N)nc54)C3)O[C@@H](n3cc(C)c(=O)[nH]c3=O)C2)O[C@@H](n2cnc3c(=O)[nH]c(N)nc32)C1` (stereo partly drawn), for which the result in series [7] and in series [1] was Active. For the same compound, 1.25 µM (≈ 6.92 µg/mL) was the least that counted as inhibitory in series [3] (MIC). For the same compound, the Drug uptake in series [8] was determined as 1 µg/mL. Moreover, the result in series [6] was inactive.
Regarding `CC(=O)N[C@@H](CCCNC(=N)N)C(=O)NCCCCCC(=O)N[C@@H](CCCNC(=N)N)C(=O)N[C@@H](CCCNC(=N)N)C(=O)NCCCCCC(=O)N[C@@H](CCCNC(=N)N)C(=O)[C@H](CCCNC(=N)N)NC(=O)CCCCCNC(=O)N[C@@H](CCCNC(=N)N)C(=O)N[C@@H](CCCNC(=N)N)C(=O)NCCCCCC(=O)N[C@@H](CCCNC(=N)N)C(=O)NCCCCCC(=O)NCCC(=O)N1C[C@@H](COP(=O)(N(C)C)N2C[C@@H](COP(=O)(N3CCNCC3)N3C[C@@H](COP(=O)(N(C)C)N4C[C@@H](COP(=O)(N(C)C)N5C[C@@H](COP(=O)(N6CCNCC6)N6C[C@@H](COP(=O)(N(C)C)N7C[C@@H](COP(=O)(N(C)C)N8C[C@@H](COP(=O)(N(C)C)N9C[C@@H](COP(=O)(N(C)C)N%10C[C@@H](COP(=O)(N%11CCNCC%11)N%11C[C@@H](CO)O[C@@H](n%12ccc(N)nc%12=O)C%11)O[C@@H](n%11cc(C)c(=O)[nH]c%11=O)C%10)O[C@@H](n%10cc(C)c(=O)[nH]c%10=O)C9)O[C@@H](n9ccc(N)nc9=O)C8)O[C@@H](n8cnc9c(=O)[nH]c(N)nc98)C7)O[C@@H](n7cnc8c(N)ncnc87)C6)O[C@@H](n6cc(C)c(=O)[nH]c6=O)C5)O[C@@H](n5cnc6c(N)ncnc65)C4)O[C@@H](n4cnc5c(=O)[nH]c(N)nc54)C3)O[C@@H](n3cc(C)c(=O)[nH]c3=O)C2)O[C@@H](n2cnc3c(=O)[nH]c(N)nc32)C1` (stereo partly drawn), the result in series [1], in series [5] and in series [6] was Active. The “fold change (FC)” value stood at 2 in [2] and 3 in series [9]. Besides, in series [3], inhibition of growth (MIC) required 0.156 µM (≈ 0.883 µg/mL). Further, the Drug uptake in series [8] is 1 µg/mL. Further, in [4], the Activity is 56%.
